Measurements from patent US20110076331A1, “Use of Deuterium Oxide as an Elastase Inhibitor” (priority 2008, published 2011).

Tests used:
Syrian Gold hamsters = assay: D2O instillation in an animal model of COPD (HNE-induced hemorrhage); format: in vivo, hamster
Protocol: To investigate the effect of D2O in a model for chronic obstructive pulmonary disease (COPD) male Syrian Gold hamsters (average weight 118 g±4 g) were divided into two groups (experimental group and control group) of 10 hamsters each. The animals of both groups were initially anesthetized intraperitoneally (ketamine 95 mg/kg and xylazine 17 mg/kg) and then intubated endotracheally with direct laryngoscopy. The experimental group received 250 μL of 0.9% NaCl solution based on D2O (98.5% deuterium enrichment) instilled, whereas 250 μL of a corresponding isotonic NaCl solution based on H2O was used in the control group. Each animal received after the end of this instillation a second instillation at a time interval of 30 minutes, which was identical for both groups: 100 μL of human neutrophil elastase (HNE, 500 μg/mL in sterile 0.9% NaCl solution). The animals were killed 4 hours (six animals per group) or 24 hours (four animals per group) after the last instillation (phenobarbital 70 mg/kg intraperitoneally).
For the animals killed 4 hours after instillation a BAL (bronchoalveolar lavage) was performed. 2.5 mL 0.9% NaCl solution was repeatedly instilled (total 3 times) for BAL and the hemoglobin concentration in the instillate then determined spectrophotometrically. The obtained value was used as a gauge for lung damage (hemorrhage) by human neutrophil elastase (HNE). For the control group an average hemoglobin value of 320±50 mOD (milli-optical density) was obtained. For the experimental group an average hemoglobin value of 170±20 mOD was measured.
For the animals killed 24 hours after instillation the lungs were removed, fixed in formalin and embedded in paraffin. Histologic longitudinal sections of the lungs in the direction of the lung hilus were prepared, stained and made visible with iron by means of an histochemical reaction (Berlin blue reaction), which serves as a gauge for the intensity of HNE-induced hemorrhage. The microscopic investigation of the sections gave the following result: […]

[1] = test system: patients with psoriasis vulgaris; assay: Half-side hydrogel experiment in psoriasis vulgaris; format: in vivo, human; conditions: 2 wt % Carbopol 980 gel with 1 wt % urea, twice a day, after 4 weeks; vs H2O gel
Protocol: A half-side experiment was conducted by means of hydrogel to determine the effect of D2O in psoriasis vulgaris. The gel was a 2 wt % Carbopol 980 with 1 wt % urea. The pH value of the gel was set at 6.5 with NaOH solution. […] The local psoriasis severity index (LPSI) was used for evaluation (Henneicke-von Zepelin, H. H., Mrowietz, U., Färber, L., Bruck-Borchers, K., Schober, C., Huber, J., Lutz, G., Kohnen, R., Christophers, E., Welzel, D., Highly purified omega-3-polyunsaturated fatty acids for topical treatment of psoriasis. Results of a double-blind, placebo-controlled multicenter study. Br J Dermatol. 1993; 129:713-7). The patients were relied on to apply the content of tubes marked “right” and “left” twice a day on the corresponding lesions on the right or left elbow. A gel produced with D2O was found in one tube, the gel in the other tube was prepared with H2O. Division occurred randomly. LPSI was determined once a week.

[2] = test system: patients with type 1 sensitization and allergic rhinitis; assay: Nasal spray in allergic rhinitis; format: in vivo, human; conditions: isotonic saline using 70% D2O, 6 times a day, 14 days, vs H2O group
Protocol: A solution with D2O was prepared accordingly for application as nasal spray. […] The number of sneezing attacks was determined and the intensity of runny nose and nasal itching measured by visual analog scales as parameters. For this purpose a patient diary was used.
A solution with D2O was prepared according to example 21 for use as nasal spray. […] The number of sneezing attacks was determined as parameter and the intensity of runny nose and nasal itching were measured by visual analog scales. For this purpose a patient diary was used.

[3] = test system: subjects with colds accompanied by severe nasal obstruction; assay: Decongestion of nasal mucosa (rhinomanometry); format: in vivo, human; conditions: one pump spray of D2O saline in each nostril
Protocol: Physiological saline was prepared from D2O (experiment group) and H2O (control group) and filled into a pump spray container as is ordinarily used to release nasal spray. Subjects with colds accompanied by severe nasal obstruction were divided into two groups of eight subjects each. Air flow through the nose was determined by rhinomanometry (initial value) in each subject right before treatment (after thorough removal of secretions). The subjects of the experimental group then each received one pump spray of D2O saline in each nostril, while the subjects of the control group received H2O saline instead in the same amount. Thirty and 60 minutes after application air flow was determined in each subject by rhinomanometry and the percent change of air flow relative to the initial value was calculated. From these values an average was formed for the verum and control groups (average percentage change in air flow <Lf%>). A positive value of <Lf%> indicates an increase, a negative value a reduction in air flow. For the experimental group after 30 minutes a value of <Lf%>=20±5% and after 60 minutes <Lf%>=90±10% was obtained. The control group gave <Lf%>=10±5% after 30 minutes and <Lf%>=5±5% after 60 minutes.

Wistar rats = assay: Animal model of allergic conjunctivitis (chicken protein); format: in vivo, rat; conditions: D2O-based isotonic saline trickled together with chicken protein
Protocol: A corresponding animal model was used to test the efficacy of eye drops prepared with D2O (Minami et al., Biol. Pharm. Bull 28:473-476, 2005). In 6-week-old Wistar rats an allergy to chicken protein was produced by injection of chicken protein together with alum and 10^10 B. pertussis into the soles of the feet and then a booster with chicken protein in the back area. Before the experiment the animals were kept in a climatized cage and after 10 minutes of adaptation 5 μL chicken protein solution was trickled into each eye. The animals were then transferred to an observation cage and the scratching movements in the direction of the eyes counted over a period of 20 minutes. Hyperemia and conjunctival edema were then determined.
To investigate an effect of D2O on the symptoms caused by chicken protein either H2O- or D2O-based isotonic saline was trickled together with the chicken protein in a double-blind design.

brown Norwegian rats = assay: Animal model of allergic bronchial asthma (ovalbumin); format: in vivo, rat; conditions: aerosol of isotonic D2O solution for 6 days before ovalbumin aerosol; after 24 hours
Protocol: The effect of D2O in allergic asthma was presented in an animal model of 10-week-old brown Norwegian rats (Roumestan et al., Resp Res 8:35-46, 2007). Sensitization of the animals occurred by repeated intraperitoneal injection of ovalbumin. The animals were then introduced to a climatized cage and constantly treated with an aerosol of isotonic H2O or D2O solution for 6 days. Asthma triggering by an ovalbumin-containing aerosol then occurred. The change in airway resistance was then determined as parameter by barometric plethysmography on the living animals after 24 hours. A significant intensification of airway resistance was found in the H2O-treated group.

SMILES: [2H]O[2H] [D2O, deuterium oxide]
- average hemoglobin value in BAL (Syrian Gold hamsters; 250 μL 0.9% NaCl solution based on D2O instilled 30 minutes before HNE, animals killed 4 hours after instillation): 170±20 mOD
- blue-stained cells in lung sections (Berlin blue reaction), intensity of HNE-induced hemorrhage (Syrian Gold hamsters; animals killed 24 hours after instillation, vs H2O control group): significantly smaller number of blue-stained cells
- inhibition of the acute lung damage caused by elastase (hemorrhage) (Syrian Gold hamsters; instillation, from reduction in hemoglobin concentration in BAL vs H2O control group, 4 hours): 47%
- local psoriasis severity index (LPSI) [1]: significant reduction of LPSI
- sneezing attacks, intensity of runny nose and nasal itching (recorded parameters) [2]: significant reduction of the recorded parameters
- average percentage change in air flow <Lf%> ([3]; after 30 minutes): 20±5%
- average percentage change in air flow <Lf%> ([3]; after 60 minutes): 90±10%
- number of scratching movements in the eye direction (Wistar rats; after 20 minutes, vs H2O): significant reduction in the number of scratching movements
- hyperemia and edema (Wistar rats; vs H2O group): reduced
- change in airway resistance (barometric plethysmography) (brown Norwegian rats): only a slight increase in airway resistance
